Measured values: article PMC6891315, “Synthesis of Novel Farnesoid X Receptor Agonists and Validation of Their Efficacy in Activating Differentiation of Mouse Bone Marrow-Derived Mesenchymal Stem Cells into Osteoblasts” (Molecules, 2019)

Experiments:
FXR = settings: cited from earlier work
ST-2 MSCs [1] = experiment: Cell toxicity (WST, Cell Counting Kit-8) assay; type: cell-based, mouse; settings: 12 days; 0–10 μM CDCA, 0–5 μM GW4064, 0–5 μM 3 or 4
Method: The cells were washed twice with PBS, and cell viability was determined using Cell Counting Kit-8 (Dojindo Molecular Technologies, Kumamoto, Japan) according to the protocols provided by the supplier. The cell viability (%) was shown relative to the vehicle-treated cells (0 μM).

[2] = tested on: FXR, BSEP and SHP gene expression in ST-2 MSCs; experiment: qPCR of FXR and FXR-target genes (BSEP, SHP) during osteoblast differentiation; type: cell-based, mouse; settings: for mRNA expression level of FXR: with BMP-2 50 ng/mL, 6 and 12 days, 10 μM CDCA, 5 μM GW4064, 5 μM 3 or 4, vs BMP-2-treated cells
Method: (§1) Mouse ST-2 MSCs were obtained from RIKEN BioResource Research Center (Tsukuba, Japan) and cultured in RPMI-1640 medium (Sigma) containing 10% (v/v) fetal calf serum and antibiotics (100 units/mL penicillin and 100 μg/mL streptomycin; Nacalai Tesque) at 37 °C in an atmosphere of 5% CO2. The ST-2 MSCs were allowed to differentiate into osteoblasts for 6 or 12 days in RPMI-1640 medium with BMP-2 (50 ng/mL). The medium was changed every 3 days.
(§2) RNAiso Plus was used to isolate total RNA (Takara-Bio, Kyoto, Japan). Subsequently total RNA (1 μg) was reverse-transcribed to cDNAs using ReverTra Ace reverse transcriptase (Toyobo, Osaka, Japan) and random hexamer (Takara-Bio). Thereafter, the mRNA levels were determined by qPCR analysis using a Power SYBR Green Master Mix (Thermo Fisher Scientific) in an Applied Biosystems 7500 Real Time PCR System (Thermo Fisher Scientific). The relative mRNA expression levels were determined using the 2^−ΔΔCT method and normalized to that of glyceraldehyde-3-phosphate dehydrogenase (GAPDH).

ST-2 MSCs [3] = experiment: ALP staining and ALP activity in BMP-2-induced osteoblast differentiation; type: cell-based, mouse; settings: for staining and activity of ALP: with BMP-2 50 ng/mL, 6 or 12 days, 10 μM CDCA, 5 μM GW4064, 5 μM 3 or 4, vs BMP-2-treated cells
Method: as §1
The ST-2 MSCs were allowed to differentiate into osteoblasts for 12 days in RPMI-1640 medium with BMP-2 (50 ng/mL) and one of FXR agonists together with or without GS (25 μM). Then, the cells were washed twice with PBS and fixed with 10% (v/v) formaldehyde in PBS at 25 °C for 10 min. The cells were again washed with PBS, and incubated with the staining solution (0.1 mg/mL naphthol AS-MX phosphate and 0.6 mg/mL Fast-blue BB salt in 0.1 M Tris-Cl, pH 8.8) at 25 °C for 30 min. After removing the staining solution, the cells were washed with PBS and visualized under a microscope (CKX-41, Olympus, Tokyo, Japan).
The ALP activity was measured using LabAssay ALP (FUJIFILM Wako Pure Chemical) according to the manufacturer’s protocols. Protein concentrations were measured using a Pierce BCA Protein Assay Kit (Thermo Fisher Scientific).

[4] = tested on: ALP gene expression in ST-2 MSCs; experiment: qPCR of ALP gene during osteoblast differentiation; type: cell-based, mouse; settings: for ALP gene expression (mRNA level): with BMP-2 50 ng/mL, 6 or 12 days, 10 μM CDCA, 5 μM GW4064, 5 μM 3 or 4, vs BMP-2-treated cells
Method: as §1, §2

[5] = tested on: RUNX2, COL1A1 and OCN gene expression in ST-2 MSCs; experiment: qPCR of osteogenic genes (RUNX2, COL1A1, OCN) during osteoblast differentiation; type: cell-based, mouse; settings: for expression of RUNX2, COL1A1 and OCN genes: with BMP-2 50 ng/mL, 10 μM CDCA, 5 μM GW4064, 5 μM 3 or 4, vs BMP-2-treated cells
Method: as §1, §2

LXRα = target: T1, LXRα (Homo sapiens, UniProt Q13133); experiment: LXRα response element-driven luciferase reporter assay in COS-7 cells; settings: 1 μM
T1 sequence (Q13133 1-447): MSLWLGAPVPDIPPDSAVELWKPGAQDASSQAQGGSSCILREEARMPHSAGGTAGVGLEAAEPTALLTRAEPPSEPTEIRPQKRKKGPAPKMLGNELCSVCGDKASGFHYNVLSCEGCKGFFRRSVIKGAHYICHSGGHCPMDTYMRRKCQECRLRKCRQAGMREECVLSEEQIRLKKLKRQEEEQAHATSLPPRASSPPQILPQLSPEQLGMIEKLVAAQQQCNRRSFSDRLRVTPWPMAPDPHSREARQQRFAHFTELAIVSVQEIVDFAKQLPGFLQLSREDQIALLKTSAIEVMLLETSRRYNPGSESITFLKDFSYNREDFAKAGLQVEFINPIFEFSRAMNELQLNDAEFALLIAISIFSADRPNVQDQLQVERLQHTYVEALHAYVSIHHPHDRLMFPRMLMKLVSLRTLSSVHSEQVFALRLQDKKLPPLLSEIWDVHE
Method: Luciferase reporter assay was performed as described previously [53]. Briefly, human hepatoma Huh-7 (for FXR, RARα, and RXRα), transformed African green monkey kidney fibroblast COS-7 (for LXRα/β and PPARα/γ/δ), or human embryonic kidney HEK293 (for VDR and TGR5) cells were transfected with each of plasmids for nuclear receptor and nuclear receptor-response element-driven luciferase gene. […] The luciferase activity was measured as described previously [53].

Structure (SMILES) | cytotoxicity (cell viability, WST assay) (ST-2 MSCs [1]) | mRNA expression level of FXR [2] | staining and activity of ALP (ST-2 MSCs [3]) | ALP gene expression (mRNA level) [4] | expression of RUNX2, COL1A1 and OCN genes ([5]; 6 days) | also measured
CC[C@H]1[C@@H](O)[C@@H]2[C@H](CC[C@]3(C)[C@@H]([C@H](C)CCC(=O)O)CC[C@@H]23)[C@@]2(C)CC[C@@H](O)C[C@@H]12 [6-ECDCA, 6α-ethylchenodeoxycholic acid] | – | – | – | – | – | potency relative to CDCA (FXR): about 100 fold
C[C@H](CCC(=O)O)[C@H]1CC[C@H]2[C@@H]3[C@H](O)C[C@@H]4C[C@H](O)CC[C@]4(C)[C@H]3CC[C@]12C [CDCA, chenodeoxycholic acid] | No cytotoxicity | elevated | elevated | elevated | further enhanced | –
CC(C)c1onc(-c2c(Cl)cccc2Cl)c1COc1ccc(-c2nc3ccc(C(=O)O)cc3n2C)cc1 [FXR agonist 1] | – | – | – | – | – | LXRα-response element-driven luciferase activity (LXRα): increased
CC(C)c1onc(-c2c(Cl)cccc2Cl)c1COc1ccc(-c2nc3cc(C(=O)O)ccc3n2C)cc1 [FXR agonist 2] | – | – | – | – | – | LXRα-response element-driven luciferase activity (LXRα): increased
CC(C)c1onc(-c2c(Cl)cccc2Cl)c1COc1ccc(-c2nc3ccc(C(=O)O)cc3n2C)cc1Cl [FXR agonist 3] | No cytotoxicity | elevated | enhanced | enhance | elevated | ability to enhance ALP staining and activity compared with GW4064 (ST-2 MSCs [3]; 6- or 12-days-differentiated ST-2 MSCs, 5 μM): comparable to that of GW4064; ability to enhance ALP gene expression compared with GW4064 ([4]; 5 μM, with BMP-2): comparable to that of GW4064; increase of RUNX2, COL1A1 and OCN expression compared with GW4064 ([5]; 6 days, 5 μM, with BMP-2): comparable to that of GW4064
CC(C)c1onc(-c2c(Cl)cccc2Cl)c1COc1ccc(-c2nc3ccc(C(=O)O)cc3n2C)c(Cl)c1 [FXR agonist 4, 2-[2-Chloro-4-[[3-(2,6-dichlorophenyl)-5-isopropyl-isoxazol-4-yl]methoxy]phenyl]-3-methyl-benzimidazole-5-carboxylic acid] | No cytotoxicity | elevated | enhanced | enhance | elevated | –
C/C=C1\C(=O)C[C@H]2[C@@H]3CCC4=CC(=O)CC[C@]4(C)[C@H]3CC[C@]12C [GS, (Z)-guggulsterone] | – | – | – | – | – | effect on FXR agonist-induced BSEP and SHP expression ([2]; co-treatment with 25 μM GS): suppressed; effect on FXR agonist-induced FXR gene expression ([2]; co-treatment with 25 μM GS): repressed; effect on FXR agonist-induced staining and activity of ALP (ST-2 MSCs [3]; co-treatment with 25 μM GS): suppressed; effect on FXR agonist-induced ALP gene expression ([4]; co-treatment with 25 μM GS): repressed; effect on novel FXR agonist-induced expression of osteogenic genes ([5]; co-treatment with 25 μM GS): repressed
CC(C)c1onc(-c2c(Cl)cccc2Cl)c1COc1ccc(/C=C/c2cccc(C(=O)O)c2)c(Cl)c1 [GW4064] | No cytotoxicity | elevated | elevated | elevated | further enhanced | –
